Test results published in publication PMC7764826, “Flavonol Glycosides: In Vitro Inhibition of DPPIV, Aldose Reductase and Combating Oxidative Stress are Potential Mechanisms for Mediating the Antidiabetic Activity of Cleome droserifolia” (Molecules, 2020).

Tests used:
[1] = biological target: T1, Dipeptidyl peptidase IV (DPPIV) (Homo sapiens, UniProt P27487); assay: DPPIV Inhibitor Screening Kit (fluorescence); assay type: biochemical; conditions: in vitro, mean ± SEM of two replicates; read-out: DPPIV inhibition IC50 (converted)
T1 construct: purchased Abnova
T1 sequence (P27487 whole entry, species assumed): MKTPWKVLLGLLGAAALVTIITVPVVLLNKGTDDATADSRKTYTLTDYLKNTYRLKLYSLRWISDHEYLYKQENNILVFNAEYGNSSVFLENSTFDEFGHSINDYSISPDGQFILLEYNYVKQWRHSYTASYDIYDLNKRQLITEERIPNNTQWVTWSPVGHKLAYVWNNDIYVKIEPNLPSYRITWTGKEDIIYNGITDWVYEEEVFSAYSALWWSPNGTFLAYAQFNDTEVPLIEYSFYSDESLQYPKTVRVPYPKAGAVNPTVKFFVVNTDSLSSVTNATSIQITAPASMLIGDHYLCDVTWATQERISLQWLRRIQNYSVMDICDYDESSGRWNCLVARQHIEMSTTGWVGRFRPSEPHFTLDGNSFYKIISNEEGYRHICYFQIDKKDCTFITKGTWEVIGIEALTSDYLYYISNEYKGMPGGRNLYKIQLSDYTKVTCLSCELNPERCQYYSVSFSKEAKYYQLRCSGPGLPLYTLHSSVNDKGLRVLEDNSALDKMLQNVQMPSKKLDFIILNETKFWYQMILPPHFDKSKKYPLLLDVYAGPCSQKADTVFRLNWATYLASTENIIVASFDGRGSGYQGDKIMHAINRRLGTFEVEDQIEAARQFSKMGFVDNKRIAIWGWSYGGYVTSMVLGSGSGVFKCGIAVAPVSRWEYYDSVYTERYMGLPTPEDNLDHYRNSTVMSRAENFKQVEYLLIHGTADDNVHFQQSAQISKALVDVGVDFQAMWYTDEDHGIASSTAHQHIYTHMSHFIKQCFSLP
Description: The DPPIV Inhibitor Screening Kit (Abnova, Taipei, Taiwan) was used in accordance to the manufacturer׳s protocol.

[2] = biological target: T2, aldose reductase (Homo sapiens, UniProt P15121); assay: Aldose Reductase Inhibitor Screening Kit (NADPH absorbance at 340 nm); assay type: biochemical; conditions: in vitro; for IC50: mean ± SEM of two replicates, read-out: Aldose reductase inhibition IC50 (converted)
T2 construct: purchased Biovision
Procedure: Determination of the aldose reductase inhibitory effectiveness of the investigated samples was performed kinetically using the Aldose Reductase Inhibitor Screening Kit (Biovision, Milpitas, CA, USA), according to the manufacturer׳s protocol. The decrease in the absorption of NADPH at 340 nm was measured in a mixture containing NADPH, the enzyme and its substrate, DL-glyceraldeyde in addition to test samples [31]. […] A 90 μL of freshly prepared Aldose Reductase Solution was then added and the plate was incubated protected from light at 37 °C for 15–20 min. After incubation, 40 μL enzyme substrate in assay buffer was added and the absorbance was measured at 340 nm kinetically for 60–90 min at 37 °C. A background control free from the enzyme was run and subtracted from the readings. The IC50 was calculated and presented for the samples and the standard.

[3] = tested on: breast (MCF7) carcinoma; conditions: cited from earlier work
[4] = biological target: T3, α-amylase from porcine pancreas (Sus scrofa, UniProt P00690); assay: α-amylase inhibition assay (CNPG3 substrate, kinetic); assay type: biochemical; conditions: in vitro, pH 6.9, 37 °C
T3 construct: purchased Sigma Aldrich
T3 sequence (P00690 16-511): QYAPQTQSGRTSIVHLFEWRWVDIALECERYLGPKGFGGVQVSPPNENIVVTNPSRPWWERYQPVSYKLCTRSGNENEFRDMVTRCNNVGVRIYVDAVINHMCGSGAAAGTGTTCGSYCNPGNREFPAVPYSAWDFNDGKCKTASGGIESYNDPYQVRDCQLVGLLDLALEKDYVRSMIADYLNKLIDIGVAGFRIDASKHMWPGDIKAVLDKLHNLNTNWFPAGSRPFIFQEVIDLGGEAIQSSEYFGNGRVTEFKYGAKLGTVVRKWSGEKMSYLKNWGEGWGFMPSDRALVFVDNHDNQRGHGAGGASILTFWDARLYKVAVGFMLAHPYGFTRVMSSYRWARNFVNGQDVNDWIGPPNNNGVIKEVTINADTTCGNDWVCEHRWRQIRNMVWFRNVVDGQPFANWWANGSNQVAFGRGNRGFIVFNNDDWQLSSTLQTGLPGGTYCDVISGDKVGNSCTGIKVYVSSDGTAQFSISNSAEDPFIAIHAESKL
Procedure: (§1) Alpha-glucosidase enzyme from Saccharomyces cerevisiae, α-amylase from porcine pancreas and 2-chloro-4-nitrophenyl-α-D-maltotrioside (CNPG3) were purchased from Sigma Aldrich. All other chemicals were purchased from UFC Biotechnology. A microplate reader (Anthos Zenyth-200RT, Cambridge, UK) was used for the spectrophotometric measurements. A Bruker NMR Spectrometer (Bruker, Yokohama, Japan) used for ^1H-NMR (400 MHZ) and ^13C-NMR (100 MHz) analysis. Spectra were recorded in CD3OD or DMSO-d6 using tetramethylsilane (Sigma-Aldrich, St. Louis, MO, USA) as an internal standard, and chemical shift values were expressed in δ ppm.
A pre-incubation mixture was prepared which contained 40 mM phosphate buffer (pH 6.9) together with different concentrations (10, 50, 100, 200 µg/mL) and (5, 20, 50, 100 µg/mL) for the parent extract and the isolated compounds, respectively. […] Then, 2-chloro-4-nitrophenyl maltotrioside (CNPG3) substrate was added where the final concentration was 0.9 µmole/mL. […] A control which was devoid of the test samples was also run in parallel.

[5] = tested on: liver (HepG2) carcinoma; conditions: cited from earlier work
[6] = Ferric reducing antioxidant power (FRAP) assay; conditions: expressed in µM FeCl2; isolated compounds at 200 µg/mL
Procedure: The antioxidant potential of the extract and the isolated compounds was assessed according to the assay originally designed by Benzie and Strain (1996) using the DetectX® Ferric Reducing Antioxidant Power (FRAP™) Detection Kit by Arbor assays, Ann Arbor, USA. In the provided plate, 75 µL of the prepared FRAP Color Solution was mixed with 20 µL of either the aqueous extract (400 µg/mL), the isolated compounds (200 µg/mL), different concentrations of the standard ferrous chloride or ascorbic acid positive control. The mixture was incubated for 30 min at room temperature and the produced blue colored product was read at 560 nm. The FRAP values were calculated and expressed in µM FeCl2.

[7] = tested on: colon (HCT116) carcinoma; conditions: cited from earlier work
[8] = biological target: Alpha-glucosidase enzyme from Saccharomyces cerevisiae; assay: α-glucosidase inhibition assay (PNP-G substrate); assay type: biochemical; conditions: in vitro, pH 6.9, 37 °C
Procedure: as §1
The tested samples were added to a reaction mixture in a 96-well microplate containing 20 µL of the phosphate buffer and 20 µL of 5 mM p-nitrophenyl α -D-glucopyranoside (PNP-G) in the buffer. […] The IC50 for test compounds as well as the standard was calculated and presented.

[9] = tested on: cultured skeletal muscle cells and adipocytes; parameters: method as in PMID 21890334; conditions: in vitro; cited from earlier work
[10] = DPPH radical scavenging assay; conditions: 30 min, room temperature, 517 nm
Procedure: The free radical scavenging capacity of the parent extract of C. droserifolia together with the isolated compounds was estimated using 2,2-diphenyl-1-picrylhydrazil (DPPH) as described previously. In brief, 240 µL of 0.004% DPPH in methanol was added to 8 µL of the parent extract and the isolated compounds at different concentrations: (2, 4, 12, 16 µg/mL) and (0.5, 1, 3, 4 µg/mL), respectively. The reaction mixture was mixed and incubated in dark for 30 min at room temperature. The absorbance was then measured at 517 nm against blank that was done using water instead of the plant extract. Ascorbic acid was used as the antioxidant standard and the IC50 value for samples and standard was determined.

IC50 [1]	IC50 [2]	IC50 [4]	α-glucosidase inhibition IC50 [8]	DPPH radical scavenging IC50 [10]	melting point	SMILES	Cytotoxic activity (in words) [3]	Cytotoxic activity (in words) [5]	FRAP value [6]	Cytotoxic activity (in words) [7]	Effect on basal glucose uptake (in words) [9]	Aldose reductase inhibitory activity (in words) [2]
0.318 µM	50 µM	–	–	5.67 ± 0.09 µg/mL	–	C[C@@H]1O[C@@H](Oc2cc(O)c3c(=O)c(O[C@@H]4O[C@H](CO)[C@@H](O)[C@H](O)[C@H]4O)c(-c4ccc(O)c(O)c4)oc3c2)[C@H](O)[C@H](O)[C@H]1O [Compound 1, quercetin-3-O-β-D-glucosyl-7-O-α-rhamnoside]	–	–	3106 ± 52.2 µM	–	–	–
0.917 µM	8.73 µM	–	–	–	225 °C	COc1cc(-c2oc3cc(O[C@@H]4O[C@H](CO)[C@@H](O)[C@H](O)[C@H]4O[C@@H]4O[C@@H](C)[C@H](O)[C@@H](O)[C@H]4O)cc(O)c3c(=O)c2O)ccc1O [Compound 2, isorhamnetin-7-O-β-D-neohesperidoside]	–	–	–	–	–	–

Continued, compound first:

SMILES	IC50 [1]	IC50 [2]	IC50 [4]	α-glucosidase inhibition IC50 [8]	DPPH radical scavenging IC50 [10]	melting point	Cytotoxic activity (in words) [3]	Cytotoxic activity (in words) [5]	FRAP value [6]	Cytotoxic activity (in words) [7]	Effect on basal glucose uptake (in words) [9]	Aldose reductase inhibitory activity (in words) [2]
COc1cc(-c2oc3cc(O)cc(O)c3c(=O)c2O[C@@H]2O[C@H](CO)[C@@H](O)[C@H](O)[C@H]2O)ccc1O [Compound 3, isorhamnetin-3-O-β-D-glucoside]	0.721 µM	45 µM	–	–	–	–	–	–	–	–	–	–
COc1ccc(-c2oc3cc(O[C@@H]4O[C@@H](C)[C@H](O)[C@@H](O)[C@H]4O)cc(O)c3c(=O)c2O[C@@H]2O[C@@H](C)[C@H](O)[C@@H](O)[C@H]2O)cc1 [Compound 4, kaempferol-4′-methoxy-3,7-O-α-dirhamnoside]	0.474 µM	51.8 µM	258 µM	110.09 ± 4.2 µg/mL	9.44 ± 0.13 µg/mL	–	potent cytotoxic activities	potent cytotoxic activities	1812 ± 33.2 µM	potent cytotoxic activities	significant insulin-like effects	–
COc1cc(-c2oc3cc(O[C@@H]4O[C@@H](C)[C@H](O)[C@@H](O)[C@H]4O)cc(O)c3c(=O)c2O[C@@H]2O[C@@H](C)[C@H](OC(C)=O)[C@@H](O)[C@H]2O)ccc1O [Compound 5, isorhamnetin-3-O-α-(4″- acetylrhamnoside)-7-O-α-rhamnoside]	–	119 µM	163 µM	86.54 ± 3.8 µg/mL	11.45 ± 0.48 µg/mL	257 °C	potent cytotoxic activities	potent cytotoxic activities	3610 ± 88.3 µM	potent cytotoxic activities	significant insulin-like effects	least aldose reductase inhibitory activity
O=C1O[C@H]([C@@H](O)CO)C(O)=C1O [ascorbic acid, reference compound]	–	–	–	–	1.37 ± 0.07 µg/mL	–	–	–	685.2 ± 1.07 µM	–	–	–
